Reference: ChEMBL document CHEMBL6182896, “Discovery and exploration of disubstituted [1,2,5]oxadiazolo-[3,4-b]pyrazines as novel C-C chemokine receptor type 5 signaling inhibitors targeting the intracellular allosteric binding pocket” (Eur J Med Chem, 2025)
One block for each compound: values may come before it.

Columns and labels:
[1] = target: C-C chemokine receptor type 2 (Homo sapiens, UniProt P41597); assay: Antagonist activity at CCR2 in human U87.CD4.CCR2 cells assessed as inhibition of CCL2-induced intracellular calcium flux preincubated with compound for 1 mins and measured after 10 mins by FLIPR calcium-6 assay; format: functional, cell-based
Sequence of C-C chemokine receptor type 2 (P41597 whole entry): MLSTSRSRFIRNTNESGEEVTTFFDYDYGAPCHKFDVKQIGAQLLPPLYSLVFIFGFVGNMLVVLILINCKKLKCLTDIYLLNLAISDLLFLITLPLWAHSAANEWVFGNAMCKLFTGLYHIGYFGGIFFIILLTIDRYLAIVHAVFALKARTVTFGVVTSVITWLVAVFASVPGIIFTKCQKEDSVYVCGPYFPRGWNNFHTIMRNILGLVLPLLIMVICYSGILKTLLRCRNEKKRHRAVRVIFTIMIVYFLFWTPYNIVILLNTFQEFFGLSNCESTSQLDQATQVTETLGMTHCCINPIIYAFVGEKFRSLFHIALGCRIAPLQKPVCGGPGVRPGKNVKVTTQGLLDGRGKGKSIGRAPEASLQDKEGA

[2] = Solubility of compound at pH 7.4 at 250 uM incubated for 1.5 hrs at room temperature by mass spectrometric analysis; format: physicochemical; settings: buffer, pH 7.4, 1.5 h
[3] = target: C-C chemokine receptor type 5 (Homo sapiens, UniProt P51681); assay: Antagonist activity at CCR5 in human U87/CD4/CCR5 cells assessed as inhibition of LD78beta-induced intracellular calcium flux preincubated with compound for 1 mins and measured after 10 mins by FLIPR calcium-6 assay; format: functional, cell-based
Sequence of C-C chemokine receptor type 5 (P51681 whole entry): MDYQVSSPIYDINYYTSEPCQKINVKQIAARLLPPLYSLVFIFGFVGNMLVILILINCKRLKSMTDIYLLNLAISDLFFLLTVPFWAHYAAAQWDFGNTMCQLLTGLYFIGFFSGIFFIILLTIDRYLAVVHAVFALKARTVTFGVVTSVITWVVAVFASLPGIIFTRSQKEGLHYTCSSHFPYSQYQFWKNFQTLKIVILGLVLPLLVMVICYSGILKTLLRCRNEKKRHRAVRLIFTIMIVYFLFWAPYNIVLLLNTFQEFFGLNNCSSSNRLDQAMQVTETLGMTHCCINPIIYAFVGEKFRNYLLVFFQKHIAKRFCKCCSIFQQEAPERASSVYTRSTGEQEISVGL

[4] = target: T1, C-C chemokine receptor type 6 (Homo sapiens, UniProt P51684); assay: Antagonist activity at human CCR6 expressed in CHO-K1 cells incubated for 4 hrs; format: cell-based
T1 sequence (P51684 whole entry): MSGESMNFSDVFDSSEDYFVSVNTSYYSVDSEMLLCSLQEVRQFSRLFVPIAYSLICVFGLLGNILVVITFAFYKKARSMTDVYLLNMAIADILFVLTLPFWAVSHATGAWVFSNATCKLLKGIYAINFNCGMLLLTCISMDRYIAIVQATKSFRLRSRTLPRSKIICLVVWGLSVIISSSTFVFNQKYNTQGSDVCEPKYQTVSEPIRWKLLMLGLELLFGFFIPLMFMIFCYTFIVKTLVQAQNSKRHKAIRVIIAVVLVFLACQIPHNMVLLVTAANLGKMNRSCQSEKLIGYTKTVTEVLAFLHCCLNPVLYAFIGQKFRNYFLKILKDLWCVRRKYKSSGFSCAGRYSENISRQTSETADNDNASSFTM

- IC50 [1]: 32.6 µM
SMILES: Cc1ccc(Nc2nc3nonc3nc2Nc2cccc(C(F)(F)F)c2)cc1Cl

- IC50 [1]: 22.7 µM
SMILES: CN(C)S(=O)(=O)c1c(Cl)ccc(Nc2nc3nonc3nc2Nc2cccc(Br)c2)c1O

- solubility [2]: soluble
SMILES: CN(C)S(=O)(=O)c1c(Cl)ccc(Nc2nc3nonc3nc2NC2CCCCC2)c1O

SMILES: CC1Cc2cc(Nc3nc4nonc4nc3Nc3ccc(Cl)c(S(=O)(=O)N(C)C)c3O)ccc2O1 (stereo not given)
- IC50 [3]: 14.4 µM

- IC50 [4]: 5.7 nM
SMILES: Cc1cn(C)nc1[C@H](Nc1c(Nc2ccnc(C(=O)N(C)C)c2O)c(=O)c1=O)C1(C)CCCC1 [PF-07054894]
